Literature values in patent US9610295B2, “Method for treating erectile dysfunction” (priority 2010, dated 2017).

Tests used:
[1] = in vivo
[2] = molecular target: phosphodiesterase type 5 (PDE5) (Homo sapiens, UniProt O76074); conditions: PDE5 vs PDE6
[3] = oral administration, Viagra formulation

SMILES: CN1CC(=O)N2[C@H](c3ccc4c(c3)OCO4)c3[nH]c4ccccc4c3C[C@@H]2C1=O [tadalafil, (6R-trans)-6-(1,3-benzodioxol-5-yl)-2,3,6,7,12,12a-hexahydro-2-methylpyrazino[1,2:1,6]-pyrido[3,4-6]indole-1,4-dione]
- half-life [1]: about 17.5 hours

SMILES: CCCc1nn(C)c2c(=O)[nH]c(-c3cc(S(=O)(=O)N4CCN(C)CC4)ccc3OCC)nc12 [sildenafil, 1-[[3-(6,7-dihydro-1-methyl-7-oxo-3-propyl-1H-pyrazolo[4,3-d]pyrimidin-5-yl)-4-ethoxyphenyl]sulfonyl]-4-methyl piperazine]
- potency for PDE5 compared to PDE6 [2]: about 10 fold
- absolute bioavailability [3]: about 40%
